Reference: patent US20260034119A1, “5-METHOXY-N,N-[…][…], THEIR […], AND METHODS FOR TREATMENT OF NEUROLOGICAL, […], AND SUBSTANCE USE DISORDERS” (priority 2023, published 2026)
Entries after “also recorded” stand apart in the source; their conditions may differ.

Experiments:
C57BL/6J mice = assay: Head twitch response (HTR); format: in vivo, mouse; conditions: s.c., presence or absence of 5-HT1A antagonist WAY-100635
Description: The head-twitch response evaluation was performed by trained observers who were blinded to both drug and dose. Mice were habituated to the testing room 30 min. The body weight of each mouse was recorded. The HTR was defined as a rapid rotational movement of the head around the longitudinal axis of the animals' body. Mice were administered with vehicle or WAY100,635 (1 mg/kg or 2 mg/kg, sc). Fifteen minutes after the pretreatment injection mice were administered either 4F, 5-MeO-MET (0.1, 0.3, 1 or 3 mg/kg, sc) or 5-MeO-MET (0.3, 1, 3, and 10 mg/kg, sc) and placed in a novel observation cage. An overhead camera (GoPro HERO9 at a 120 Hz, San Mateo, CA, US) recorded their movements. Observers scored HTR from recorded footage for the first 10-min period.

mice = assay: Open field locomotor activity; format: in vivo, mouse

## COc1ccc2[nH]cc(CCN3CCCC3)c2c1F [4-F, 5-MeO-PyrT, 4-Fluoro, 5-methoxypyrrolidinyl-tryptamine]
C57BL/6J mice
  head-twitch response (HTR), measure of 5-HT2A-mediated hallucinogenic activity: no preclinical signs of hallucinogenic effects; also recorded: did not produce notable HTR
mice; mice, s.c.
  lowest dose producing suppression of locomotion: 0.03 mg/kg
mice; open field, WAY-100635 1 mg/kg s.c. 15 min prior, compound 1 mg/kg s.c.
  sedative effects after WAY-100635 pretreatment: negates the sedative effects
